Patent publication US20220132862A1, “PSEUDOMONAS SP. STRAIN, COMPOSITION COMPRISING THE SAME, AND USES THEREOF” (FUTURECO BIOSCIENCE, S.A., priority 2019, published 2022)

test system: B2021; assay: Antibiotic resistance, MIC by broth microdilution (BMD); type: cell-based, Pseudomonas sp.; settings: lowest antibiotic concentration that inhibited 80% of growth; LB, 18 h, 28° C.
Protocol: Minimum inhibitory concentrations (MICs) for tested antibiotics were determined by the broth microdilution (BMD) method. Four antibiotics were used: Streptomycin Sulfate, Nalidixic Acid, Oxytetracycline and Erythromycine. Briefly. MICs were determined in sterile 96-well plates by two-fold serial dilutions in 100 μL of LB. […] The MIC was defined as the lowest antibiotic concentration that inhibited 80% of growth (based on OD measurements) in comparison to the control. Moreover, cell viability was confirmed by addition of 30 μL of 0.01% resazurin. Any color changes from blue-purple to pink were recorded as positive and the MIC was defined as the lowest antibiotic concentration lacking this color change.

Molecule | Antibiotic resistance (MIC) [µg/mL]
CC[C@H]1OC(=O)[C@H](C)[C@@H](O[C@H]2C[C@@](C)(OC)[C@@H](O)[C@H](C)O2)[C@H](C)[C@@H](O[C@@H]2O[C@H](C)C[C@H](N(C)C)[C@H]2O)[C@](C)(O)C[C@@H](C)C(=O)[C@H](C)[C@@H](O)[C@]1(C)O [Erythromycine] | 240
CCn1cc(C(=O)O)c(=O)c2ccc(C)nc21 [Nalidixic Acid] | 240
CN(C)[C@@H]1C(O)=C(C(N)=O)C(=O)[C@@]2(O)C(O)=C3C(=O)c4c(O)cccc4[C@@](C)(O)[C@H]3[C@H](O)[C@@H]12 [Oxytetracycline] | 3.13
Streptomycine Sulfate | 1600
